Holding throughout (assay type): physicochemical
Series [1] in a line: Water uptake / hygroscopicity at relative humidity (sorption-desorption).
Series [2] is described as follows: Solvent loss as a function of temperature as measured by TG/DTA. The protocol:
(ii) Thermogravimetric/Differential Thermal Analysis (TG/DTA)
Differential scanning calorimetry was conducted for each crystalline form using a Seiko TG/DTA Instrument. For each analysis, the DSC cell/sample chamber was purged with 100 mL/min of ultra-high purity nitrogengas. The instrument was calibrated with high purity indium. The heating rate was 10° C. per minute in the temperature range between 25 and 300° C. The heat flow, which was normalized by sample weight, was plotted versus the measured sample temperature. The data were reported in units of watts/gram (“W/g”). The plot was made with the endothermic peaks pointing down. The endothermic melt peak (melting point) was evaluated for extrapolated onset temperature.

Series [3] in a line: Solid form stability on wet granulation, equilibration, humidity exposure, compression, grinding (XRPD). The note with it: for form change on wet granulation: wet granulation (with water). The protocol: (i) X-Ray Powder Diffraction (XRPD) The X-ray powder diffraction pattern was determined using a Scintag XDS 2000 diffractometer instrument. The X-ray diffraction pattern was recorded between 2° and 35° (2θ) with CuK radiation (45 kV, 40 mA). The measurements were performed at about 45 kV and 40 mA under the following conditions: • Scan rate: 0.5° (20)/min • Chopper increment: 0.02° • Slits (from left to right): 2, 3, 0.3, 0.2 mm

Another series can be described thus: Flowability of the solid.

Structures can show the parent of a compound that is named as a salt.

Turning to `CCOC(=O)[C@H](C)CC(Cc1ccc(-c2ccccc2)cc1)NC(=O)CCC(=O)O` (stereo partly drawn) [Modification A, calcium salt of N-(3-carboxyl-1-oxopropyl)-(4S)-(p-phenylphenylmethyl)-4-amino-(2R)-methyl butanoic acid ethyl ester], the “hygroscopicity (in words)” value in series [1] was “hygroscopic”. Also, the water uptake in series [1] (at 95% RH) is 13.8%.
For `CCOC(=O)[C@H](C)CC(Cc1ccc(-c2ccccc2)cc1)NC(=O)CCC(=O)O` (stereo partly drawn) [Modification B, calcium salt of N-(3-carboxyl-1-oxopropyl)-(4S)-(p-phenylphenylmethyl)-4-amino-(2R)-methyl butanoic acid ethyl ester], the “hygroscopicity (in words)” value in series [1] is “only slightly hygroscopic”. Further, the “water uptake, maximum reached” value in series [1] (can reach up to) was “up to 11%”. For the same molecule, the “hygroscopicity (water uptake) under typical humidity levels” value in series [1] (up to 75% RH) is given as under 2%. Besides, in series [2], the thermal stability result is on record as “thermally stable up to its melting point”. Moreover, the “form change on equilibration in solvent” value in series [3] (equilibration in water or ethanol/water 1:1) is on record as “Hydrate formation was observed”. Also, in series [3], the “form change on wet granulation” value is given as “Hydrate formation was observed”.
With `CCOC(=O)[C@H](C)CC(Cc1ccc(-c2ccccc2)cc1)NC(=O)CCC(=O)O` (stereo partly drawn) [Modification HB, calcium salt of N-(3-carboxyl-1-oxopropyl)-(4S)-(p-phenylphenylmethyl)-4-amino-(2R)-methyl butanoic acid ethyl ester], the “behaviour at humidity (in words)” value in series [1] (25° C., relative humidity from 0% to 80%) was “remains dry”. This molecule yielded a water uptake in series [1] (at 95% RH) of 2.0%. In series [1] (sorption-desorption experiments), the “form retention during take-up and release of water” value is given as “retained”. The “water levels as obtained” value in series [2] was 1.4-4.1%. In series [2] (TG/DTA, 10° C./min, nitrogen, listed as HB), the “Loss on drying (LOD)” value is 3.4%. Also, the “temperature required for complete dehydration” value in series [2] (heating) was “above 97 °C”. Further, in “Flowability of the solid”, the flowability result was “good flowability properties”.
Turning to `CCOC(=O)[C@H](C)CC(Cc1ccc(-c2ccccc2)cc1)NC(=O)CCC(=O)O` (stereo partly drawn) [amorphous AHU377 calcium salt, calcium salt of N-(3-carboxyl-1-oxopropyl)-(4S)-(p-phenylphenylmethyl)-4-amino-(2R)-methyl butanoic acid ethyl ester], the water uptake in series [1] (at 80% RH) worked out at 15.2%. Also, the “form change on exposure to elevated humidity” value in series [3] (>75% RH) was “turns into a crystalline hydrate”. The “form change after compression” value in series [3] (compression for 5 min at 10 t, XRPD) is reported as “No change of the amorphous form”. In addition, in series [3] (grinding, XRPD), the “form change after grinding” value is “No change of the amorphous form”. The “form change on wet granulation” value in series [3] is “rapidly leads to hydrate formation”.

(Values after patent US11786498B2, “Sacubitril calcium salts” (Novartis AG, priority 2015, dated 2023).)
